Measured values: publication PMC2410169, “N-hexanoyl-sphingomyelin potentiates in vitro doxorubicin cytotoxicity by enhancing its cellular influx” (British Journal of Cancer, 2004)
Read-outs that look alike come from different tables or passages of the source.

Columns and labels:
BAEC [1] = type: cell-based, bovine
Procedure: (§1) For intracellular doxorubicin measurements, cells were cultured in flat-bottom 96-well plates. At confluence, cells were changed to a serum-free medium and exposed to 50 μM doxorubicin during 60 min (unless indicated otherwise). After washing with ice-cold PBS, cells were lysed in 1% (w v^−1) Triton X-100 in water. Native fluorescence intensities were then measured by a Perkin-Elmer Victor Wallac II fluorescence microplate reader, using λex 485 nm and λem 535 nm filters. Additional probes and drugs that were tested for cellular uptake during 60 min incubations, either in the absence or presence of lipid, were hydrazide-AF488 (35 μM, λex 485 nm, λem 535 nm), sulphorodamine-101 (400 μM, λex 355 nm, λem 620 nm), propidium iodide (300 μM, λex 355 nm, λem 535 nm), o-phtaldialdehyde (1 mM, λex 485 nm, λem 535 nm), topotecan (30 μM, λex 355 nm, λem 535 nm), epirubicin (50 μM, λex 485 nm, λem 535 nm), bisbenzimidine (10 μM, λex 355 nm, λem 460 nm), camptothecin (30 μM, λex 355 nm, λem 460 nm), daunorubicin (25 μM, λex 485 nm, λem 535 nm) and idarubicin (20 μM, λex 485 nm, λem 535 nm).

[2] = system: A431 (epidermoid carcinoma); assay: Cellular doxorubicin accumulation, fluorimetry of cell lysates; type: cell-based, human; conditions: 50 μM doxorubicin, 60 min
Procedure: as §1

[3] = system: KB (oesophagal carcinoma); assay: as above; type: cell-based, human; conditions: 50 μM doxorubicin, 60 min
Procedure: as §1

[4] = system: MCF-7 (mammary adenocarcinoma); assay: as above; type: cell-based, human; conditions: 50 μM doxorubicin, 60 min
Procedure: as §1

[5] = system: control renal fibroblasts; assay: Cellular doxorubicin accumulation in control kidney fibroblasts; type: cell-based, mice; conditions: Table 2, C6-SM 10 μM, 60 min
Procedure: (§2) The following cell types were cultured in Dulbecco's modified Eagle's medium (DMEM) containing 10% (v v^−1) foetal calf serum: primary bovine aortic endothelial cells (BAEC; passage 14–19), kindly provided by Dr A Haimovitz-Friedman (Memorial Sloan-Kettering Cancer Center, New York City NY, USA); MCF-7, KB and A431 carcinoma cells, purchased from the American Type Culture Collection (Manassas VA, USA); SV40 large-T antigen-immortalised kidney fibroblasts from Mrp1/Mdr1a/Mdr1b triple knockout mice and control renal fibroblasts ([Wijnholds et al, 2000]; kindly provided by Dr AH Schinkel, The Netherlands Cancer Institute, Amsterdam). […] All culture media were supplemented with 100 U ml^−1 penicillin, 100 μg ml^−1 streptomycin and 4 mM L-glutamine. For intracellular doxorubicin measurements, cells were cultured in flat-bottom 96-well plates. […] After washing with ice-cold PBS, cells were lysed in 1% (w v^−1) Triton X-100 in water. Native fluorescence intensities were then measured by a Perkin-Elmer Victor Wallac II fluorescence microplate reader, using λex 485 nm and λem 535 nm filters.

[6] = system: kidney fibroblasts from Mrp1/Mdr1a/Mdr1b triple knockout mice; assay: Cellular doxorubicin accumulation in ABC-transporter knockout fibroblasts; type: cell-based; conditions: like in normal fibroblasts
Procedure: as §2

A431 cells = assay: Cell viability, MTT assay; type: cell-based, human; conditions: A431, with C6-SM vs none
Procedure: After centrifugation (3000 rpm, 10 min) supernatants were removed.

BAEC [7] = assay: Plasma membrane integrity: uptake of fluid phase marker hydrazide-AF488; type: cell-based, bovine; conditions: 10 μM C6-SM
Procedure: Confluent and serum-free BAEC were incubated for 120 min in the presence of C6-SM and 175 μM of the membrane impermeant fluid phase marker hydrazide-AF488. After washing, cells were lysed in PBS containing 1% (w v^−1) Triton X-100 and fluorescence was measured at λex 485 nm and λem 535 nm. […] All data were corrected for protein contents, as determined with the BCA assay ([Smith et al, 1985]).

BAEC [8] = assay: Clathrin-mediated endocytosis: AF488-transferrin uptake; type: cell-based, bovine; conditions: 10 μM C6-SM, 120 min
Procedure: (§3) To monitor clathrin- and raft-mediated endocytic activity, confluent BAEC were allowed to take up AF488-transferrin (150 μg ml^−1) or AF488-CTB (75 μg ml^−1), respectively. Incubations were performed under serum-free conditions in the presence of 10 μM C6-SM during 120 min. Cells were then washed and lysed in PBS containing 1% (v v^−1) Triton X-100. Fluorescence was then measured at λex 485 nm and λem 535 nm.

BAEC [9] = assay: Raft-mediated endocytosis: AF488-CTB uptake; type: cell-based, bovine; conditions: 10 μM C6-SM, 120 min
Procedure: as §3

BAEC [10] = system: BAEC
Procedure: For viability assessment, cells were cultured in flat-bottom 96-well plates. After experimental treatments, 100 μg of the mitochondrial dehydrogenase substrate MTT was added to each well ([Carmichael et al, 1987]). Cells were then incubated for 60 min at 37°C. After centrifugation (3000 rpm, 10 min) supernatants were removed. The precipitated blue formazan products were then dissolved in 100 μl DMSO and absorbencies were read in a Bio-Tek Instruments EL 340 photospectrometric microplate reader at 540 nm. Background absorbencies were subtracted and values from untreated control cells were set at 100% viability.
After washing away remaining extracellular drug and lipid, cells were cultured for another 48 h. Viability was then assessed by the MTT assay, which relies on the fact that only mitochondria of viable cells have the capacity to convert the MTT substrate ([Carmichael et al, 1987]).

Structure (SMILES): CCCCCCCCCCCCCC=CC(O)C(COP(=O)([O-])OCC[N+](C)(C)C)NC(=O)CCCCC (centres unmarked) [C6-SM, N-hexanoyl-sphingomyelin]
- C6-SM concentration at which the plateau in doxorubicin-uptake enhancement and cytotoxicity is reached (BAEC [1]): about 8 μM
- Enhanced doxorubicin uptake after washing away C6-SM not taken up by the cells (BAEC [1]): remained
- Increase of intracellular doxorubicin over control levels (BAEC [1]; 10 μM C6-SM, 50 μM doxorubicin, incubation periods of 15–60 min): up to 300%
- Doxorubicin (% of control±s.d.) (BAEC [1]; 10 μM lipid analogue with 50 μM doxorubicin, 60 min, control = no lipid, no ethanol, n=3): 328.3±24.4 % of control
- Lipid concentration giving a significant increase in drug uptake (BAEC [1]; 50 μM doxorubicin, 60 min): 2 µM
- Doxorubicin (% of control±s.d.) (BAEC [1]; Table 2, C6-SM 10 μM + ATP depletion): 410.9±157.0 % of control
- Doxorubicin (% of control±s.d.) (BAEC [1]; Table 2, C6-SM 10 μM + MK571 12.5 μM): 323.3±23.0 % of control
- Doxorubicin (% of control±s.d.) (BAEC [1]; Table 2, C6-SM 10 μM + PSC833 5 μM): 278.1±40.7 % of control
- Doxorubicin (% of control±s.d.) (BAEC [1]; Table 2, C6-SM 10 μM alone, 60 min, n=3): 369.0±113.0 % of control
- Doxorubicin (% of control±s.d.) (BAEC [1]; Table 4, C6-SM 10 μM after CDX 10 mM, 30 min): 264.7±72.1 % of control
- Doxorubicin (% of control±s.d.) (BAEC [1]; Table 4, C6-SM 10 μM after PPMP 30 μM, 96 h): 340.7±78.6 % of control
- Doxorubicin (% of control±s.d.) (BAEC [1]; Table 4, C6-SM 10 μM after bSMase 200 mU ml^−1, 2 h): 386.2±74.7 % of control
- Doxorubicin (% of control±s.d.) (BAEC [1]; Table 4, C6-SM 10 μM, no pretreatment, n=3): 353.3±62.6 % of control
- Maximum increase in doxorubicin uptake over control values (BAEC [1]; at 6 μM C6-SM, 50 μM doxorubicin, 60 min): 300%
- C6-SM-stimulated doxorubicin uptake under conditions that block endocytosis (BAEC [1]; cells at 4°C or depleted for ATP (sodium azide and deoxyglucose)): remained unaffected
- Active concentrations (BAEC [1]; doxorubicin uptake enhancement): 2 to 6 µM
- Drug uptake-enhancing effect after removal of membrane-inserted C6-SM (BAEC [1]; hydrolysis by exogenous bSMase or BSA back-exchange, not shown): strongly diminished
- Enhanced uptake of doxorubicin (BAEC [1]; low micromolar amounts of lipid (abstract)): up to 300%
- Concentration-dependent C6-SM effect on doxorubicin accumulation compared with BAEC [2]: Comparable results
- Concentration-dependent C6-SM effect on doxorubicin accumulation compared with BAEC [3]: Comparable results
- Concentration-dependent C6-SM effect on doxorubicin accumulation compared with BAEC [4]: Comparable results
- Doxorubicin (% of control±s.d.) [5]: 331.8±50.2 % of control
- Increase compared to doxorubicin uptake in the absence of the lipid analogue [6]: three- to four-fold increase
- Increase in drug sensitivity (A431 cells): 14 fold
- Hydrazide-AF488 uptake compared to 100% control uptake (BAEC [7]): 97.4±18.2%
- Transferrin uptake compared to 100% uptake under control conditions (BAEC [8]): 67±36%
- CTB uptake compared to 100% uptake under control conditions (BAEC [9]): 80±23%
- Toxicity of C6-SM itself (BAEC [10]): virtually nontoxic
- Increase in doxorubicin sensitivity (BAEC [10]; BAEC, 10 μM C6-SM vs none): seven-fold increase in sensitivity
